Measurements published in PubChem BioAssay AID248 (DTP/NCI, 2004).
Several values for one entry are separate records, joined by “and”; a condition that tells them apart may be missing. Equal entries are not always repeated. Toxic doses and inconclusive results are not listed. Cut-off read from the data, not from the text of the source: active = T/C of 150% or more; inactive = T/C below 125%.

Tested on: L1210 leukemia ip in BDF1 mice, survival T/C
Assay: NCI In Vivo Anticancer Drug Screen. Data for tumor model L1210 Leukemia (intraperitoneal) in B6D2F1 (BDF1) mice
Settings: endpoint: mean survival time, higher = longer survival
In short: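 Antitumor effect is assessed in tumor-bearing animals. Survival in the compound arm is compared with a vehicle-dosed control arm and expressed as their quotient.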

[1] = dose: 100.0 mg/kg/injection, schedule: Q01DX009 (ip), vehicle: saline with Tween-80
[2] = dose: 200.0 mg/kg/injection, schedule: Q01DX009 (ip), vehicle: saline with Tween-80
[3] = dose: 200.0 mg/kg/injection, schedule: Q01DX001 (ip), vehicle: other
[4] = dose: 400.0 mg/kg/injection, schedule: Q01DX001 (ip), vehicle: other
[5] = dose: 100.0 mg/kg/injection, schedule: Q04DX002 (ip), vehicle: Klucel (hydroxypropylcellulose) (HPC)
[6] = dose: 200.0 mg/kg/injection, schedule: Q04DX002 (ip), vehicle: Klucel (hydroxypropylcellulose) (HPC)
[7] = dose: 100.0 mg/kg/injection, schedule: Q01DX001 (ip), vehicle: saline
[8] = dose: 200.0 mg/kg/injection, schedule: Q01DX001 (ip), vehicle: saline
[9] = dose: 100.0 mg/kg/injection, schedule: Q04DX002 (ip), vehicle: saline with Tween-80
[10] = dose: 200.0 mg/kg/injection, schedule: Q04DX002 (ip), vehicle: saline with Tween-80
[11] = dose: 400.0 mg/kg/injection, schedule: Q04DX002 (ip), vehicle: saline with Tween-80
[12] = dose: 100.0 mg/kg/injection, schedule: Q04DX003 (ip), vehicle: saline with Tween-80
[13] = dose: 200.0 mg/kg/injection, schedule: Q04DX003 (ip), vehicle: saline with Tween-80
[14] = dose: 400.0 mg/kg/injection, schedule: Q01DX009 (ip), vehicle: saline with Tween-80
[15] = dose: 400.0 mg/kg/injection, schedule: Q04DX003 (ip), vehicle: saline with Tween-80
[16] = dose: 50.0 mg/kg/injection, schedule: Q01DX009 (ip), vehicle: Klucel (hydroxypropylcellulose) (HPC)
[17] = dose: 100.0 mg/kg/injection, schedule: Q01DX009 (ip), vehicle: Klucel (hydroxypropylcellulose) (HPC)
[18] = dose: 100.0 mg/kg/injection, schedule: Q04DX003 (ip), vehicle: Klucel (hydroxypropylcellulose) (HPC)
[19] = dose: 200.0 mg/kg/injection, schedule: Q04DX003 (ip), vehicle: Klucel (hydroxypropylcellulose) (HPC)
[20] = dose: 400.0 mg/kg/injection, schedule: Q04DX003 (ip), vehicle: Klucel (hydroxypropylcellulose) (HPC)
[21] = dose: 100.0 mg/kg/injection, schedule: Q04DX003 (ip), vehicle: saline
[22] = dose: 200.0 mg/kg/injection, schedule: Q04DX003 (ip), vehicle: saline
[23] = dose: 400.0 mg/kg/injection, schedule: Q04DX003 (ip), vehicle: saline
[24] = dose: 400.0 mg/kg/injection, schedule: Q01DX001 (ip), vehicle: saline
[25] = dose: 400.0 mg/kg/injection, schedule: Q04DX002 (ip), vehicle: Klucel (hydroxypropylcellulose) (HPC)
[26] = dose: 100.0 mg/kg/injection, schedule: Q01DX001 (ip), vehicle: saline with Tween-80
[27] = dose: 200.0 mg/kg/injection, schedule: Q01DX001 (ip), vehicle: saline with Tween-80
[28] = dose: 400.0 mg/kg/injection, schedule: Q01DX001 (ip), vehicle: saline with Tween-80

Measured: T/C

CC(C)(C)c1ccc(N)c([N+](=O)[O-])c1
inactive: dose: 50.0 mg/kg/injection, schedule: Q01DX009 (ip), vehicle: saline with Tween-80 102 % of control | [1] 87 % of control | [2] 102 % of control

CCOc1cccc(NNc2ccccc2OCC)c1
inactive: dose: 44.0 mg/kg/injection, schedule: Q01DX001 (ip), vehicle: other 106 % of control | dose: 66.0 mg/kg/injection, schedule: Q01DX001 (ip), vehicle: other 95 % of control | dose: 150.0 mg/kg/injection, schedule: Q01DX001 (ip), vehicle: other 92 % of control | [3] 97 % of control | [4] 97 % of control

O=Cc1c(Cl)[nH]c2ccccc12
inactive: dose: 50.0 mg/kg/injection, schedule: Q04DX002 (ip), vehicle: Klucel (hydroxypropylcellulose) (HPC) 90 % of control | [5] 93 % of control | [6] 101 % of control

OC1C2COc3nc4ccccc4n3C(O2)C1O (centres undefined)
inactive: [7] 97 % of control | [8] 95 % of control

CC(=O)OC1CC23CCC(=O)C2(CC3)C1 (centres undefined)
inactive: [9] 99 % of control | [10] 111 % of control | [11] 99 % of control

CC(N)CCCO (centres undefined)
inactive: dose: 5.0 mg/kg/injection, schedule: Q01DX001 (ip), vehicle: saline 103 % of control | dose: 10.0 mg/kg/injection, schedule: Q01DX001 (ip), vehicle: saline 97 % of control | dose: 20.0 mg/kg/injection, schedule: Q01DX001 (ip), vehicle: saline 103 % of control | dose: 40.0 mg/kg/injection, schedule: Q01DX001 (ip), vehicle: saline 101 % of control | dose: 80.0 mg/kg/injection, schedule: Q01DX001 (ip), vehicle: saline 103 % of control

CCOC(=O)CN=C(C)OCC
inactive: [1] 100 % of control | [12] 107 % of control | [2] 99 % of control | [13] 97 % of control | [14] 90 % of control | [15] 103 % of control

O=C(O)c1cccnc1
inactive: dose: 25.0 mg/kg/injection, schedule: Q01DX009 (ip), vehicle: Klucel (hydroxypropylcellulose) (HPC) 103 % of control | dose: 25.0 mg/kg/injection, schedule: Q04DX003 (ip), vehicle: Klucel (hydroxypropylcellulose) (HPC) 91 % of control | [16] 100 % of control | dose: 50.0 mg/kg/injection, schedule: Q04DX003 (ip), vehicle: Klucel (hydroxypropylcellulose) (HPC) 89 % of control | [17] 96 % of control | [18] 100 % of control | dose: 200.0 mg/kg/injection, schedule: Q01DX009 (ip), vehicle: Klucel (hydroxypropylcellulose) (HPC) 95 % of control | [19] 91 % of control | [20] 107 % of control

O=S(=O)(Nc1cc(S(=O)(=O)c2ccccc2)c(NS(=O)(=O)c2ccccc2)c(Cl)c1Cl)c1ccccc1
inactive: dose: 75.0 mg/kg/injection, schedule: Q04DX003 (ip), vehicle: Klucel (hydroxypropylcellulose) (HPC) 103 % of control | dose: 150.0 mg/kg/injection, schedule: Q04DX003 (ip), vehicle: Klucel (hydroxypropylcellulose) (HPC) 92 % of control | dose: 300.0 mg/kg/injection, schedule: Q04DX003 (ip), vehicle: Klucel (hydroxypropylcellulose) (HPC) 95 % of control

CCCCCCCCCCCCCCCC1=NN(c2ccccc2)C(=O)C1NC(=O)O (centres undefined)
inactive: [18] 107 % of control | [19] 97 % of control | [20] 98 % of control

CC(=O)C[n+]1ccccc1Br
inactive: dose: 62.0 mg/kg/injection, schedule: Q01DX015 (ip), vehicle: water 87 % of control | dose: 125.0 mg/kg/injection, schedule: Q01DX015 (ip), vehicle: water 100 % of control

Cc1cccc(Cl)[n+]1[O-]
inactive: [21] 97 % of control | [22] 97 % of control | [23] 86 % of control

CC(=O)Nc1c(O)c(Cl)c(Cl)c(Cl)c1Cl
inactive: [21] 105 % of control | [22] 101 % of control | [23] 94 % of control

Nc1cccc2scnc12
inactive: [12] 90 % of control | [13] 95 % of control | [15] 90 % of control

CC(C)(C)OC(=O)N1C2c3ccccc3C1C1C2N=NN1c1ccccc1 (centres undefined)
inactive: [7] 110 % of control | [8] 95 % of control | [24] 91 % of control

CCC(C)C(CN)(CCCN1CCOCC1)c1cccc2ccccc12 (centres undefined)
inactive: [12] 93 % of control | [13] 95 % of control | [15] 95 % of control

CC(=O)Nc1cc(Cl)c([N+](=O)[O-])cc1C
inactive: [5] 110 % of control | [6] 113 % of control | [25] 103 % of control

CNC(=S)N(C)N=O
inactive: dose: 100.0 mg/kg/injection, schedule: Q01DX Z (ip), vehicle: methylcellulose (MC) 97 % of control | dose: 200.0 mg/kg/injection, schedule: Q01DX Z (ip), vehicle: methylcellulose (MC) 120 % of control

CCOC(=O)Nc1cc(Cl)cc(NC(=O)OCC)n1
inactive: dose: 100.0 mg/kg/injection, schedule: Q01DX001 (ip), vehicle: other 94 % of control | [1] 96 % of control | [12] 107 % of control | [3] 102 % of control | [2] 106 % of control | [13] 100 % of control | [4] 96 % of control | [14] 96 % of control | [15] 108 % of control

Nc1ncnc2c1ncn2C1OC(CO)C(NC(=O)C(CCCCNC(=O)OCc2ccccc2)NC(=O)OCc2ccccc2)C1O (centres undefined)
inactive: [7] 102 % of control | [8] 100 % of control | [24] 100 % of control

CCN(CC)c1ccc(Cc2cc(O)c3c(c2O)C(=O)c2ccccc2C3=O)cc1
inactive: [16] 89 % of control | [17] 104 % of control | [5] 89 % of control | [6] 89 % of control | [25] 96 % of control

CCCCCCCCCCCC(=O)NC(=S)Nc1ccc(C(=O)O)cc1
inactive: [26] 103 % of control | [1] 98 % of control and 101 % of control | [9] 102 % of control and 105 % of control | [12] 101 % of control | [27] 102 % of control | [2] 93 % of control and 103 % of control | [10] 100 % of control and 112 % of control | [13] 98 % of control | [28] 96 % of control | [14] 101 % of control and 92 % of control | [11] 103 % of control and 115 % of control | [15] 101 % of control

O=c1/c(=C/c2ccccc2)c2cccc3cccc1c32
inactive: dose: 25.0 mg/kg/injection, schedule: Q01DX001 (ip), vehicle: saline with Tween-80 97 % of control | dose: 50.0 mg/kg/injection, schedule: Q01DX001 (ip), vehicle: saline with Tween-80 93 % of control | [26] 97 % of control

O=C1c2cscc2C(O)(c2ccccc2)c2c(Cl)sc(Cl)c21 (centres undefined)
inactive: [26] 88 % of control | [27] 88 % of control | [28] 88 % of control
